Where “and” joins values, the source holds several entries; their conditions need not be identical. Equal values may be shown once. Read-outs that look alike come from different tables or passages of the source.
What was measured:
mTOR = mTOR (Homo sapiens, UniProt P42345); test: biochemical
NEK1 = target: T1, NEK1 (Homo sapiens, UniProt Q96PY6); test: biochemical
T1 sequence (Q96PY6 1-1258): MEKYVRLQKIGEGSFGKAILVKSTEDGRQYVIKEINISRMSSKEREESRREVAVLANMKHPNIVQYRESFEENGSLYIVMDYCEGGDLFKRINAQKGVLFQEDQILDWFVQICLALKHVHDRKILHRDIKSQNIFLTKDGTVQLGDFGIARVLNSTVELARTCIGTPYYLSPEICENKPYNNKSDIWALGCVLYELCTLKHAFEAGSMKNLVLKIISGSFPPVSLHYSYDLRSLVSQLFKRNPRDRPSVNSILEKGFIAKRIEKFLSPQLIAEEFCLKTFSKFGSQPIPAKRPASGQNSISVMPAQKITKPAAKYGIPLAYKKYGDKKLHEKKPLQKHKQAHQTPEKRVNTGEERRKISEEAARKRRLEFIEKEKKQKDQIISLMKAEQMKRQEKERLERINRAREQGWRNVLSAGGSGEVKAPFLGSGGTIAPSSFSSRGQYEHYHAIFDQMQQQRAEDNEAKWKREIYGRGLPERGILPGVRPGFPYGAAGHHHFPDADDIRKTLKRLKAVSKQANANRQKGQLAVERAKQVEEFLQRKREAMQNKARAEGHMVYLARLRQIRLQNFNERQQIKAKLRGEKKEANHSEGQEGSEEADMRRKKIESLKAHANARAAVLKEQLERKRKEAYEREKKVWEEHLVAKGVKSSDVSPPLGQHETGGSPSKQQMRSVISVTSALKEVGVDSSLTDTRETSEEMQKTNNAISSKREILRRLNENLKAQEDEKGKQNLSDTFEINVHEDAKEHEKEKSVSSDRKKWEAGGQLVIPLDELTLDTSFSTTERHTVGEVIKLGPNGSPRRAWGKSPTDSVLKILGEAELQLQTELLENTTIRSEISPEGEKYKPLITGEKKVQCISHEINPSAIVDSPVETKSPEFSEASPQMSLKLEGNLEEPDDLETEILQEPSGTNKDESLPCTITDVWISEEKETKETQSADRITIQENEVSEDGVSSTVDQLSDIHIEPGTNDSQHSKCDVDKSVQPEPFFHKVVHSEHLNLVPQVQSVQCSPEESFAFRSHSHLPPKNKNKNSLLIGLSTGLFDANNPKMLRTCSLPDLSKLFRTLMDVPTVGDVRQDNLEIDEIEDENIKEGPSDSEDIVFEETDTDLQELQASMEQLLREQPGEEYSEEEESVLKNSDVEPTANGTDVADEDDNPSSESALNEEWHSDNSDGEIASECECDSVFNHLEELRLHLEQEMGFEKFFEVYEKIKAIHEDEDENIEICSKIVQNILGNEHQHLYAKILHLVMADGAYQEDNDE

NEK9 = target: T2, NEK9 (Homo sapiens, UniProt Q8TD19); test: biochemical
T2 sequence (Q8TD19 1-979): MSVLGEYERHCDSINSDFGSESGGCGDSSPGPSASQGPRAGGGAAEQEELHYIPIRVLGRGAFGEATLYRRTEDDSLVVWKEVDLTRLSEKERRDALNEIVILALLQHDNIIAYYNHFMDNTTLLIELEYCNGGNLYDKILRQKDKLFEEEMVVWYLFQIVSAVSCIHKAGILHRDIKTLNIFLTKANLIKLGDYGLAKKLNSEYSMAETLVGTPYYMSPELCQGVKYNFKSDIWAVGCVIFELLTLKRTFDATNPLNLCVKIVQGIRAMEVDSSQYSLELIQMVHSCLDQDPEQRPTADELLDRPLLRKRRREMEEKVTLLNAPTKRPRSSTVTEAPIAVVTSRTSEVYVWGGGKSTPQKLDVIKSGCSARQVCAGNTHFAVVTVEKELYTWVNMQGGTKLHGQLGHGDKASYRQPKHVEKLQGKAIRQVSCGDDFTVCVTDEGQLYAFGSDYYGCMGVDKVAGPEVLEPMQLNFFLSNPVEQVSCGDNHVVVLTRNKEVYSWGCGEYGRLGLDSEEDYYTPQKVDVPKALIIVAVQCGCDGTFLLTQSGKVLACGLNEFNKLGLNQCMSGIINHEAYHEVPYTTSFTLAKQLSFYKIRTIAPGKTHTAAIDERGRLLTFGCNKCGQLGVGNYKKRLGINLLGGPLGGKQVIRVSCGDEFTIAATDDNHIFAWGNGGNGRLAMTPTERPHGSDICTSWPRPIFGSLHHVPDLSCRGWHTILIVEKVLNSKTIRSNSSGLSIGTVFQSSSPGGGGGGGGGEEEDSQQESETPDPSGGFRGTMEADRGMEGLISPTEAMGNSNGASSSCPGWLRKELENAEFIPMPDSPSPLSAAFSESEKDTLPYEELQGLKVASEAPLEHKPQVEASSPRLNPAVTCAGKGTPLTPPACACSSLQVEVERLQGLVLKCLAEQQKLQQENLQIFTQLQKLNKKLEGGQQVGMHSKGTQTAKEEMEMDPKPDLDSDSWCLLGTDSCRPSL

NEK2 = target: T3, NEK2 (Homo sapiens, UniProt P51955); test: biochemical
T3 sequence (P51955 1-445): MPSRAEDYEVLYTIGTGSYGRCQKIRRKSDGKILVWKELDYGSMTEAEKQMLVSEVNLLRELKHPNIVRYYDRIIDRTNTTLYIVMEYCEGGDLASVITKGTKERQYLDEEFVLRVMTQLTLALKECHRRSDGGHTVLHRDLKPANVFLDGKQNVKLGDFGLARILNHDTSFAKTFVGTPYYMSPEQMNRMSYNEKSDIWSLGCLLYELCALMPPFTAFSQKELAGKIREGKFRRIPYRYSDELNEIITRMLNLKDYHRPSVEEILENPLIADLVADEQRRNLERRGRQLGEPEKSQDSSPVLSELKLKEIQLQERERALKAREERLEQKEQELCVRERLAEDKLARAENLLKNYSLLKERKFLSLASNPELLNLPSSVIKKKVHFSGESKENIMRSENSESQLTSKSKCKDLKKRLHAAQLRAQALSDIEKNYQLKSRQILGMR

CSNK1D = CSNK1D (Homo sapiens, UniProt P48730); test: biochemical
MAP4K5 = MAP4K5 (Homo sapiens, UniProt Q9Y4K4); test: biochemical; design: species or system K562 (extract); replicate k of n = 2 (each experiment ID is one independent experiment; two experiment IDs per compound); conditions: read-out: KDapp
HepG2 cells = conditions: cited from earlier work

MAP4K5, sequence (Q9Y4K4 whole entry): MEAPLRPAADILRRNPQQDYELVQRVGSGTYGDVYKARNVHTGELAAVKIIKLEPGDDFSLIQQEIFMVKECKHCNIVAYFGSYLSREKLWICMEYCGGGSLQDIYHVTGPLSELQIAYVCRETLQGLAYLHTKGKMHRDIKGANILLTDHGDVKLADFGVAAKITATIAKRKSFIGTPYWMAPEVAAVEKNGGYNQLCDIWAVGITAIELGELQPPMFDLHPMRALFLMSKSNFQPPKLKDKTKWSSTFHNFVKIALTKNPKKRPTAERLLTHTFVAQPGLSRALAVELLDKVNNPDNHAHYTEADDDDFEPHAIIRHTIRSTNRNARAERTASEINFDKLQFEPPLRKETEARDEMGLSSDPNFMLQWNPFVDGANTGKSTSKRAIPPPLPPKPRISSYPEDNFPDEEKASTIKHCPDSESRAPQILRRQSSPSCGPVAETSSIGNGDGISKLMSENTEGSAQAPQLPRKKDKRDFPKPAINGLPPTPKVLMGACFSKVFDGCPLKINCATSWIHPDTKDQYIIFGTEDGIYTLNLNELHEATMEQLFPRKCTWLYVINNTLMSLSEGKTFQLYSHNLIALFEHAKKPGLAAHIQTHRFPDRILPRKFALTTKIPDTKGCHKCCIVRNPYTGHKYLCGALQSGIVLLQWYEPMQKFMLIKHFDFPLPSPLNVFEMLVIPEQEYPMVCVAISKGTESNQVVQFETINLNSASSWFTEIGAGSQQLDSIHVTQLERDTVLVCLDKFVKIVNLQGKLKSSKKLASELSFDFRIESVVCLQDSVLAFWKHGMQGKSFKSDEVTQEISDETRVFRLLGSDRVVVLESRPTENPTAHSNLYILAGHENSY
CSNK1D, sequence (P48730 whole entry): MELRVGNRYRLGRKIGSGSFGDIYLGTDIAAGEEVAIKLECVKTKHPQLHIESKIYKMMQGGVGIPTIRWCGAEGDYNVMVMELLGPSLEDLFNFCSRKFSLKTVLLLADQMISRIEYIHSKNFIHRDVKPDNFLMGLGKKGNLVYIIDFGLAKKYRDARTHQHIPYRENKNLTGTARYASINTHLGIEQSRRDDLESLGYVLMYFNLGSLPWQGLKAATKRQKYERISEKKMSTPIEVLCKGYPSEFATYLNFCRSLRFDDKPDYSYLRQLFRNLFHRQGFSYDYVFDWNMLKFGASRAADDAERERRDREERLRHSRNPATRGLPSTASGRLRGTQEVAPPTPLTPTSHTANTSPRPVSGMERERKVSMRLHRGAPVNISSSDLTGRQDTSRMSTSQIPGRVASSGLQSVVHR

SMILES	IC50 (mTOR)	IC50 (NEK1)	IC50 (NEK9)	IC50 (NEK2)	IC50 (CSNK1D)	Kd (MAP4K5)	Inhibition of HepG2 cell growth at 10 μM (HepG2 cells)	PCT_INHIB_HEPG2 (HepG2 cells; HepG2 cells, ref ChEMBL)	PCT_INHIB_HEPG2 (HepG2 cells; HepG2 cells, downloaded from ChEMBL ref F.J. Gamo et al., Nature 2010)	PCT_INHIB_HEPG2 (HepG2 cells; HepG2, downloaded from ChEMBL, ref F.J. Gamo et al., Nature 2010)
CN(C)CC(O)COc1ccc(Nc2ncc([N+](=O)[O-])c(Nc3ccccc3O)n2)cc1.O=C(O)C(F)(F)F (stereo not drawn) [TCMDC-141399]	> 20000 nM	6400 nM	> 20000 nM	6500 nM and 4200 nM	> 20000 nM	2850 nM	47%	47	–	–
Cl.NCC1(c2nc(-c3ccc(Cl)c(O)c3)c(-c3ccncc3)[nH]2)CCCCC1 [TCMDC-141154]	> 20000 nM	> 20000 nM	> 20000 nM	> 20000 nM	69 nM and 79 nM	3310 nM	48%	–	48	–
CN1CCN(c2ccc(Nc3ncc(C#N)c(Nc4ccccc4C(N)=O)n3)cc2)CC1.Cl [TCMDC-134116]	> 20000 nM	570 nM and 470 nM	770 nM and 580 nM	570 nM and 250 nM	1800 nM	185 nM and 192 nM	43%	–	–	43%
